Test results: PubChem BioAssay AID330 (DTP/NCI, 2004)
Several values for one entry are separate records, joined by “and”; a condition that tells them apart may be missing. Equal values may be shown once. Toxic doses and inconclusive results are not listed. Rule for the calls: active = survival T/C of 150% or more; inactive = T/C below 125% in these data. Square brackets hold non-standard residues; d marks the D form. Peptide text beside a SMILES is read from it. * marks the point of attachment. ξ: configuration not given here. Cbz = O=C(OCc1ccccc1)*; ξNle = CCCCC(N)C(=O)O

System: P388 leukemia ip, CD2F1 mice, survival T/C
Assay: NCI In Vivo Anticancer Drug Screen. Data for tumor model P388 Leukemia (intraperitoneal) in CD2F1 (CDF1) mice
Settings: endpoint: median survival time, higher = longer survival
In short: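 Mice carrying the transplanted tumor received test compound or vehicle. Survival was recorded in each group, and the value is the treated-group measurement divided by that of the vehicle-treated control group.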

[1] = dose: 50.0 mg/kg/injection, schedule: Q01DX009 (ip), vehicle: saline
[2] = dose: 100.0 mg/kg/injection, schedule: Q01DX009 (ip), vehicle: saline
[3] = dose: 200.0 mg/kg/injection, schedule: Q01DX009 (ip), vehicle: saline
[4] = dose: 50.0 mg/kg/injection, schedule: Q01DX009 (ip), vehicle: saline with Tween-80
[5] = dose: 100.0 mg/kg/injection, schedule: Q01DX009 (ip), vehicle: saline with Tween-80
[6] = dose: 200.0 mg/kg/injection, schedule: Q01DX009 (ip), vehicle: saline with Tween-80
[7] = dose: 50.0 mg/kg/injection, schedule: Q01DX005 (ip), vehicle: saline with Tween-80
[8] = dose: 100.0 mg/kg/injection, schedule: Q01DX005 (ip), vehicle: saline with Tween-80
[9] = dose: 200.0 mg/kg/injection, schedule: Q01DX005 (ip), vehicle: saline with Tween-80
[10] = dose: 25.0 mg/kg/injection, schedule: Q01DX005 (ip), vehicle: Klucel (hydroxypropylcellulose) (HPC)
[11] = dose: 50.0 mg/kg/injection, schedule: Q01DX005 (ip), vehicle: Klucel (hydroxypropylcellulose) (HPC)
[12] = dose: 100.0 mg/kg/injection, schedule: Q01DX005 (ip), vehicle: Klucel (hydroxypropylcellulose) (HPC)
[13] = dose: 200.0 mg/kg/injection, schedule: Q01DX005 (ip), vehicle: Klucel (hydroxypropylcellulose) (HPC)

Measured: T/C

Oc1c(Cl)cc(Cl)cc1/C=N/NC(=S)Nc1cc(C(F)(F)F)cc(C(F)(F)F)c1
inactive: dose: 12.5 mg/kg/injection, schedule: Q01DX009 (ip), vehicle: olive oil, sesame oil, peanut oil 105 % of control | dose: 25.0 mg/kg/injection, schedule: Q01DX009 (ip), vehicle: olive oil, sesame oil, peanut oil 107 % of control | dose: 50.0 mg/kg/injection, schedule: Q01DX009 (ip), vehicle: olive oil, sesame oil, peanut oil 120 % of control | dose: 50.0 mg/kg/injection, schedule: Q01DX009 (oral), vehicle: saline with Tween-80 92 % of control | dose: 100.0 mg/kg/injection, schedule: Q01DX009 (ip), vehicle: olive oil, sesame oil, peanut oil 86 % of control | dose: 100.0 mg/kg/injection, schedule: Q01DX009 (oral), vehicle: saline with Tween-80 108 % of control | dose: 200.0 mg/kg/injection, schedule: Q01DX009 (oral), vehicle: saline with Tween-80 99 % of control | dose: 400.0 mg/kg/injection, schedule: Q01DX009 (oral), vehicle: saline with Tween-80 90 % of control

O=P(O)(O)OC1C(OP(=O)(O)O)C(OP(=O)(O)O)C(OP(=O)(O)O)C(OP(=O)(O)O)C1OP(=O)(O)O (configuration not stated)
inactive: [1] 94 % of control | [2] 94 % of control | [3] 102 % of control

Nc1ccc2c(n1)NCC/C2=N\Nc1ccc(Br)cc1
inactive: [4] 103 % of control | [5] 104 % of control | [6] 106 % of control

CC1=C/N\C(C#N)=C(C#N)/N=C/C(C)=C\N\C(C#N)=C(C#N)/N=C\1
inactive: dose: 50.0 mg/kg/injection, schedule: Q01DX009 (ip), vehicle: Klucel (hydroxypropylcellulose) (HPC) 92 % of control | dose: 100.0 mg/kg/injection, schedule: Q01DX009 (ip), vehicle: Klucel (hydroxypropylcellulose) (HPC) 105 % of control | dose: 200.0 mg/kg/injection, schedule: Q01DX009 (ip), vehicle: Klucel (hydroxypropylcellulose) (HPC) 98 % of control

CCCCC(NC(=O)OCc1ccccc1)C(=O)NCC(=O)OC (configuration not stated) (Cbz-[ξNle]-Gly-OMe)
inactive: [7] 99 % of control | [8] 100 % of control | [9] 99 % of control

CCOP(=O)(CC(=O)NC(C(N)=O)C(C)C)OCC (configuration not stated)
inactive: [7] 101 % of control | [8] 104 % of control | [9] 105 % of control

O=C1SC(Nc2ccccc2)/C(=N\N=C2/C(Nc3ccccc3)SC(=O)N2Cc2ccccc2)N1Cc1ccccc1 (configuration not stated)
inactive: dose: 100.0 mg/kg/injection, schedule: Q04DX002 (ip), vehicle: Klucel (hydroxypropylcellulose) (HPC) 86 % of control | dose: 200.0 mg/kg/injection, schedule: Q04DX002 (ip), vehicle: Klucel (hydroxypropylcellulose) (HPC) 94 % of control | dose: 400.0 mg/kg/injection, schedule: Q04DX002 (ip), vehicle: Klucel (hydroxypropylcellulose) (HPC) 91 % of control

O=C(NC(=O)C(F)(F)C(F)(F)C(F)(F)F)Nc1ccc(F)c(Cl)c1
inactive: [4] 107 % of control | [5] 99 % of control | [6] 105 % of control

O=S(=O)(/C=C/c1ccc(F)cc1)Cc1ccccc1
inactive: [7] 92 % of control | [8] 92 % of control | [9] 90 % of control

CCc1ccc2c(c1)N(CCCN(CCCl)CCCl)c1ccccc1S2
inactive: dose: 0.78 mg/kg/injection, schedule: Q01DX009 (ip), vehicle: saline with Tween-80 106 % of control | dose: 1.56 mg/kg/injection, schedule: Q01DX009 (ip), vehicle: saline with Tween-80 101 % of control and 115 % of control

C/C=C/CCC(=O)CC(O)CCO (configuration not stated)
inactive: dose: 12.5 mg/kg/injection, schedule: Q01DX005 (ip), vehicle: Klucel (hydroxypropylcellulose) (HPC) 101 % of control | [10] 98 % of control | [11] 104 % of control and 89 % of control | [12] 104 % of control | [13] 101 % of control | dose: 400.0 mg/kg/injection, schedule: Q01DX005 (ip), vehicle: Klucel (hydroxypropylcellulose) (HPC) 111 % of control

NC(N)=Nc1c(N)ncnc1N
inactive: dose: 60.0 mg/kg/injection, schedule: Q01DX005 (ip), vehicle: saline with Tween-80 104 % of control and 95 % of control | dose: 120.0 mg/kg/injection, schedule: Q01DX005 (ip), vehicle: saline with Tween-80 100 % of control | dose: 240.0 mg/kg/injection, schedule: Q01DX005 (ip), vehicle: saline with Tween-80 96 % of control and 98 % of control

C=C1C(=O)OC2CC(C)C3(O)CCC(=O)C3(C)CC12 (configuration not stated)
inactive: [10] 98 % of control | [11] 90 % of control | [12] 100 % of control | [13] 102 % of control

CN(CCCCC(O)CN(C)C(=S)S)C(=S)S (configuration not stated)
inactive: dose: 50.0 mg/kg/injection, schedule: Q01DX005 (ip), vehicle: saline 98 % of control | dose: 100.0 mg/kg/injection, schedule: Q01DX005 (ip), vehicle: saline 102 % of control | dose: 200.0 mg/kg/injection, schedule: Q01DX005 (ip), vehicle: saline 98 % of control

N#C[C@H]1C[C@@H](c2ccc([N+](=O)[O-])cc2)N(c2ccc(C=O)cc2)O1
inactive: dose: 100.0 mg/kg/injection, schedule: Q01DX001 (ip), vehicle: saline with Tween-80 98 % of control | dose: 200.0 mg/kg/injection, schedule: Q01DX001 (ip), vehicle: saline with Tween-80 98 % of control | dose: 400.0 mg/kg/injection, schedule: Q01DX001 (ip), vehicle: saline with Tween-80 99 % of control

COc1ccc(OC)c(C2N(C)CCCN2C)c1
inactive: dose: 6.25 mg/kg/injection, schedule: Q01DX009 (ip), vehicle: saline sonified 95 % of control | dose: 12.5 mg/kg/injection, schedule: Q01DX009 (ip), vehicle: saline sonified 90 % of control | dose: 25.0 mg/kg/injection, schedule: Q01DX009 (ip), vehicle: saline sonified 100 % of control

CCCCCCCCCCC(OC(C)=O)C1CCC(C2CCC(C(O)CCCCCCCCCCCCC3C=C(C)OC3=O)O2)O1 (configuration not stated)
inactive: dose: 0.25 mg/kg/injection, schedule: Q01DX005 (ip), vehicle: water 111 % of control | dose: 0.5 mg/kg/injection, schedule: Q01DX005 (ip), vehicle: water 124 % of control

CC1CCC2CC(C3CCCC[N-]3)[N-]C(N)C2C1.CC1CCC2CC(C3CCCC[N-]3)[N-]C(N)C2C1.O=[N+]([O-])O.[Cu+] (configuration not stated)
inactive: dose: 12.5 mg/kg/injection, schedule: Q04DX002 (ip), vehicle: saline 97 % of control | dose: 12.5 mg/kg/injection, schedule: Q04DX002 (ip), vehicle: suspension in saline 100 % of control | dose: 25.0 mg/kg/injection, schedule: Q04DX002 (ip), vehicle: saline 104 % of control | dose: 25.0 mg/kg/injection, schedule: Q04DX002 (ip), vehicle: suspension in saline 104 % of control and 118 % of control | dose: 50.0 mg/kg/injection, schedule: Q04DX002 (ip), vehicle: suspension in saline 111 % of control and 114 % of control | dose: 100.0 mg/kg/injection, schedule: Q04DX002 (ip), vehicle: suspension in saline 103 % of control and 105 % of control and 120 % of control

CCOC(=O)/[C](=N\N=P(N(C)C)(N(C)C)N(C)C)[Sb]([CH3])[CH3]
inactive: dose: 12.5 mg/kg/injection, schedule: Q01DX001 (ip), vehicle: saline 99 % of control | dose: 25.0 mg/kg/injection, schedule: Q01DX001 (ip), vehicle: saline 102 % of control

C/C=C/C(=O)Oc1ccc[nH]c1=O
inactive: [10] 105 % of control and 91 % of control | [11] 114 % of control and 116 % of control | [12] 108 % of control and 113 % of control | [13] 92 % of control

Cc1ncc2c(n1)-c1ccccc1OC2O (configuration not stated)
inactive: [1] 103 % of control | [2] 91 % of control | [3] 100 % of control

C[N+]1(CCC(/C=C/c2ccc([N+](=O)[O-])cc2)=N\O)CCOCC1
inactive: dose: 7.5 mg/kg/injection, schedule: Q01DX005 (ip), vehicle: saline with Tween-80 107 % of control | dose: 15.0 mg/kg/injection, schedule: Q01DX005 (ip), vehicle: saline with Tween-80 93 % of control | dose: 30.0 mg/kg/injection, schedule: Q01DX005 (ip), vehicle: saline with Tween-80 100 % of control

COC(=O)CC(C(=O)CSC(S(=O)(=O)c1ccccc1)S(=O)(=O)c1ccccc1)C(=O)OC (configuration not stated)
inactive: [11] 99 % of control | [12] 101 % of control | [13] 100 % of control

COC(/C=N/OC(C)=O)c1ccccc1 (configuration not stated)
inactive: dose: 25.0 mg/kg/injection, schedule: Q04DX003 (ip), vehicle: saline with Tween-80 98 % of control and 99 % of control | dose: 50.0 mg/kg/injection, schedule: Q04DX003 (ip), vehicle: saline with Tween-80 102 % of control and 92 % of control

Cc1cc(C)[n+]2n1C(=O)C(c1ccc(C3C(=O)n4c(C)cc(C)[n+]4C3=O)cc1)C2=O (configuration not stated)
inactive: dose: 50.0 mg/kg/injection, schedule: Q01DX005 (ip), vehicle: Klucel + Tween-80 99 % of control | dose: 100.0 mg/kg/injection, schedule: Q01DX005 (ip), vehicle: Klucel + Tween-80 97 % of control | dose: 200.0 mg/kg/injection, schedule: Q01DX005 (ip), vehicle: Klucel + Tween-80 100 % of control

O=C1CSC(C2CC=CCC2)N1c1nncs1 (configuration not stated)
inactive: [7] 100 % of control | [8] 91 % of control | [9] 90 % of control
